Laboratory results from patent US4983616A, “Hexahydropyrrolo(2,3-B)indole carbamates, ureas, amides and related compounds” (priority 1990, dated 1991).
Counter-ions that a name gives are not always drawn. Like-named read-outs stand apart in the source and are kept apart here.

Assays:
[1] = tested on: Scopolamine Induced Memory Deficit; assay type: in vivo, mice
Description: In this assay mice are tested for their ability to remember an unpleasant stimulus for a period of 24 hours. A mouse is placed in a chamber that contains a dark compartment; a strong incandescent light drives it to the dark compartment, where an electric shock is administered through metal plates on the floor. The animal is removed from the testing apparatus and tested again, 24 hours later, for the ability to remember the electric shock.
If scopolamine, an anticholinergic that is known to cause memory impairment, is administered before an animal's initial exposure to the test chamber, the animal re-enters the dark compartment shortly after being placed in the test chamber 24 hours later. This effect of scopolamine is blocked by an active test compound, resulting in a greater interval before re-entry into the dark compartment.
The results for an active compound are expressed as the percent of a group of animals in which the effect of scopolamine is blocked, as manifested by an increased interval between being placed in the test chamber and re-entering the dark compartment.
Results of this assay for some of the compounds of this invention and those for tacrine and pilocarpine (reference compounds) are presented in Table 2.

[2] = target: T1, Brain AChE (acetylcholinesterase, rat striatum) (Rattus norvegicus, UniProt P37136); experiment: In Vitro Inhibition of Acetylcholinesterase Activity in Rat Striatum; assay type: biochemical, rat (male Wistar)
T1 construct: corpora striata dissected free, weighed and homogenized in 19 volumes; from tissue; host or cells: corpora striata of male Wistar rats, whole homogenate
T1 sequence (P37136 32-614): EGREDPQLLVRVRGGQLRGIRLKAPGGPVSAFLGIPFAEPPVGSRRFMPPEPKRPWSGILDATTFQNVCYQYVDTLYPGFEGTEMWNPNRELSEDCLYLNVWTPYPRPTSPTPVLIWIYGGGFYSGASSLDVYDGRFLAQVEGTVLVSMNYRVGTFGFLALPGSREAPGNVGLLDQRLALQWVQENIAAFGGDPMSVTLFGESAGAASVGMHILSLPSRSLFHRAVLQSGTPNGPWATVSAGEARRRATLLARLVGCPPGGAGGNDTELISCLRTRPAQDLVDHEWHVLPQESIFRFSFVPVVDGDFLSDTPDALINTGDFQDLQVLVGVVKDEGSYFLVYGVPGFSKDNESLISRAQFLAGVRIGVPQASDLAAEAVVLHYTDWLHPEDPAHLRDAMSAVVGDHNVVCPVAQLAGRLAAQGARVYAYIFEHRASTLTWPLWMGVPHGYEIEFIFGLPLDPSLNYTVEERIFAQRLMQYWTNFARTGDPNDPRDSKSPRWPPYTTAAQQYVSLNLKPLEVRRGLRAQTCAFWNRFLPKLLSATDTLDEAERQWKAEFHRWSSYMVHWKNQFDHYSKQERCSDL
Description: Cholinesterases are found throughout the body, both in the brain and in serum. However, only brain acetylcholinesterase (AChE) distribution is correlated with central cholinergic innervation.
In Vitro Inhibition of Acetylcholinesterase Activity in Rat Striatum
The method described below was used in this invention for assaying cholinesterase activity.
1. 0.05M Phosphate buffer, pH 7.2
(a) 6.85 g NaH2 PO4 .cndot.H2 O/100 ml distilled H2 O
(c) add (a) to (b) until pH reaches 7.2
(a) 9.9 mg 5,5-dithiobisnitrobenzoic acid (DTNB) (0.25 mM)
(b) 99 mg s-acetylthiocholine chloride (5 mM)
(c) q.s. to 100 ml with 0.05M phosphate buffer, pH 7.2 (reagent 1)
3. […]
Following the 10 minute preincubation of the tissue (enzyme) with the inhibitor, the samples are mixed with the substrate chromogen buffer by the ABA-100. Using the indicated instrument settings the ABA-100 automatically reads the color reaction and prints out the results in enzyme units after 15 minutes.
2. The enzyme activity can also be measured with Gilford 250 spectrophotometer. […]
The uninhibited activity of the enzyme (tissue homogenate) is first determined. […] The reaction rate is determined by the slope of the recorded absorbance change. […]

[3] = 0.31 mg/kg of body weight, s.c, mice, 24 hours
[4] = 5.0 mg/kg of body weight, s.c, mice, 24 hours

Row | SMILES | % of Animals with Scopolamine Induced Memory Deficit Reversal [1, 3] [%] | % of Animals with Scopolamine Induced Memory Deficit Reversal [1, 4] [%] | IC50 [2] [µM] | other results
1 | CN1CCC2(C)c3cc(NC(=O)Oc4ccccc4)ccc3N(C)C12.O=C(O)C(=O)O (stereo not shown) [1,2,3,3a,8,8a-Hexahydro-5-(phenoxycarbonylamino)-1,3a,8-trimethylpyrrolo[2,3-b]indole oxalate] | 40 | 21 | 14 | % of Animals with Scopolamine Induced Memory Deficit Reversal ([1]; 1.16 mg/kg of body weight, s.c, mice, 24 hours): 53%
2 | CN1CCC2(C)c3cc(NC(=O)Oc4ccc(Cl)cc4)ccc3N(C)C12 (stereo not shown) [5-(4-Chlorophenoxycarbonylamino)-1,2,3,3a,8,8a-hexahydro-1,3a,8-trimethylpyrrolo[2,3-b]indole oxalate] |  |  | 1.1 | 
3 | CN1CCC2(C)c3cc(NC(=O)OC(C)(C)C)ccc3N(C)C12.O=C(O)C(=O)O (stereo not shown) [5-(t-Butoxycarbonylamino)-1,2,3,3a,8,8a-hexahydro-1,3a,8-trimethylpyrrolo[2,3-b]indole oxalate] | 33 | 27 |  | % of Animals with Scopolamine Induced Memory Deficit Reversal ([1]; 1.25 mg/kg of body weight, s.c, mice, 24 hours): 20%
4 | CC[C@@H]1C(=O)OC[C@@H]1Cc1cncn1C [Pilocarpine, reference compound] |  | 13 |  | 
5 | CN1CCC2(C)c3cc(NC(=O)OCc4ccccc4)ccc3N(C)C12 (stereo not shown) [5-(Benzoxycarbonylamino)-1,2,3,3a,8,8a-hexahydro-1,3a,8-trimethylpyrrolo[2,3-b]indole] |  |  |  | % of Animals with Scopolamine Induced Memory Deficit Reversal ([1]; 0.3 mg/kg of body weight, s.c, mice, 24 hours): 28%; % of Animals with Scopolamine Induced Memory Deficit Reversal ([1]; 1.0 mg/kg of body weight, s.c, mice, 24 hours): 21%; % of Animals with Scopolamine Induced Memory Deficit Reversal ([1]; 3.0 mg/kg of body weight, s.c, mice, 24 hours): 21%
6 | Nc1c2c(nc3ccccc13)CCCC2 [Tacrine, reference compound] |  |  |  | % of Animals with Scopolamine Induced Memory Deficit Reversal ([1]; mouse, in vivo): 13%
